The results in this text go back to PubChem BioAssay (NCI).

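A five-concentration, 48-hour dose response in 96-well plates underlies each endpoint, interpolated linearly between surrounding concentrations. TGI: concentration producing complete growth inhibition.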

Test systems include A498 renal; HCC-2998 colon; IGROV1 ovarian; LOX IMVI melanoma; MDA-N; NCI-H460 lung; NCI-H522 lung; PC-3 prostate; SF-539 CNS; SNB-75 CNS; SW-620 colon; TK-10 renal.
What all share (assay): DTP human tumour cell line panel, 48 h

Usually TGI stands for the concentration giving total growth inhibition. Lower therefore signals greater sensitivity of the cells. Turning to `Cc1nn(C(=O)Cc2ccccc2)c2c1C(c1ccccc1)SC(N)=N2` (centres undefined), the TGI with A498 renal, with HCC-2998 colon, with IGROV1 ovarian, with LOX IMVI melanoma, with MDA-N and in the experiment on NCI-H460 lung was > 100 µM in each case. Moreover, the TGI with NCI-H522 lung, in the experiment with PC-3 prostate, in the experiment with SF-539 CNS, with SNB-75 CNS, in the experiment on SW-620 colon and with TK-10 renal was > 100 µM in each case.
In the case of `COc1ccc(S(=O)(=O)n2c3c(c4ccccc42)[C@@H]2[C@@H](CCCN2C(=O)CS(=O)c2ccc(C)cc2)[C@H](Cl)C3)cc1` (some centres undefined), the TGI in the experiment on A498 renal, in the experiment on HCC-2998 colon, in the experiment on IGROV1 ovarian, in the experiment on LOX IMVI melanoma, in the experiment on MDA-N and in the experiment with NCI-H460 lung was > 100 µM throughout. The TGI in the experiment on NCI-H522 lung, in the experiment on PC-3 prostate, in the experiment on SF-539 CNS, in the experiment on SNB-75 CNS, in the experiment on SW-620 colon and in the experiment on TK-10 renal was > 100 µM in each case.
Consider `O=C(C(=O)n1ccc2ccccc21)n1ccc2ccccc21`, for which the TGI in the experiment on A498 renal is > 100 µM; in the experiment with HCC-2998 colon it was > 100 µM; with IGROV1 ovarian, 53.1 µM; with LOX IMVI melanoma, > 100 µM; in the experiment with MDA-N, > 100 µM; in the experiment on NCI-H460 lung, > 100 µM. Further, the TGI is > 100 µM with NCI-H522 lung; > 100 µM with PC-3 prostate; > 100 µM in the experiment on SF-539 CNS; 56 µM with SNB-75 CNS; > 100 µM in the experiment on SW-620 colon; > 100 µM in the experiment with TK-10 renal.
In the case of `CC(N)/C(N)=N/O` (centres undefined), the TGI in the experiment on A498 renal, in the experiment on HCC-2998 colon, in the experiment with IGROV1 ovarian, in the experiment with LOX IMVI melanoma, with MDA-N and with NCI-H460 lung was > 100 µM in each case. For the same compound, the TGI with NCI-H522 lung, with PC-3 prostate, with SF-539 CNS, in the experiment on SNB-75 CNS, in the experiment on SW-620 colon and with TK-10 renal was > 100 µM in each case.
Regarding `O=[N+]([O-])c1ccc2nc(Nc3ccccc3)c(Nc3ccccc3)nc2c1`, the TGI with A498 renal was 11.6 µM; in the experiment on HCC-2998 colon it was 2.65 µM; in the experiment on IGROV1 ovarian it was 4.98 µM; in the experiment with LOX IMVI melanoma it was 3.14 µM; in the experiment with MDA-N, 2.23 µM; in the experiment with NCI-H460 lung, 1.61 µM. In addition, the TGI in the experiment on NCI-H522 lung is 1.33 µM; with PC-3 prostate, 10.3 µM; in the experiment on SF-539 CNS, 2.98 µM; in the experiment on SNB-75 CNS it was 5.25 µM; in the experiment with SW-620 colon it was 3.46 µM; in the experiment with TK-10 renal it was 6.84 µM.
Take `COc1ccc(C(SCCO)(c2ccccc2)c2ccc(OC)cc2)cc1`: the TGI stood at 27.1 µM in the experiment on A498 renal; 15.2 µM in the experiment with HCC-2998 colon; 46.2 µM in the experiment with IGROV1 ovarian; 33.8 µM with LOX IMVI melanoma; 20.3 µM with MDA-N; 17.2 µM in the experiment on NCI-H460 lung. Besides, the TGI with NCI-H522 lung worked out at 24.9 µM; in the experiment on PC-3 prostate it was 28.9 µM; in the experiment with SF-539 CNS it was 31.2 µM; with SNB-75 CNS it was 16.8 µM; in the experiment with SW-620 colon, 35.6 µM; in the experiment on TK-10 renal, 33.5 µM.
In the case of `CSC(=O)c1sc(SC)[n+](-c2ccccc2)c1O`, the TGI with A498 renal is > 100 µM; in the experiment with HCC-2998 colon, 44.8 µM; with IGROV1 ovarian, 37.2 µM; with LOX IMVI melanoma, 44.8 µM; in the experiment with MDA-N, 37.1 µM; in the experiment with NCI-H460 lung it was 86.3 µM. The TGI in the experiment on NCI-H522 lung amounted to 24.8 µM; in the experiment with PC-3 prostate, 29.8 µM; in the experiment with SF-539 CNS, 29.5 µM; in the experiment on SNB-75 CNS it was 27.2 µM; with SW-620 colon, 42.5 µM; with TK-10 renal, 40.3 µM.
As for `C=C1C(=O)O[C@@H]2/C=C(C)/C=C\[C@@H]3O[C@@]3(C)C[C@@H](O)C12` (some centres undefined), the TGI in the experiment with A498 renal is 30.4 µM; in the experiment with HCC-2998 colon, 33.1 µM; with IGROV1 ovarian it was 28.6 µM; in the experiment on LOX IMVI melanoma, 22.2 µM; with MDA-N, > 100 µM; in the experiment with NCI-H460 lung it was 73.3 µM. The TGI in the experiment with NCI-H522 lung is 19.6 µM; with PC-3 prostate, 73.2 µM; with SF-539 CNS, 26 µM; in the experiment on SNB-75 CNS, > 100 µM; in the experiment with SW-620 colon it was 17.2 µM; in the experiment on TK-10 renal it was 16.1 µM.
Consider `CCOC(=O)c1cn2c(n1)sc1cc(F)ccc12`, for which the TGI in the experiment on A498 renal, in the experiment with HCC-2998 colon, with IGROV1 ovarian, in the experiment with LOX IMVI melanoma, in the experiment on MDA-N and in the experiment with NCI-H460 lung was > 100 µM throughout. The TGI in the experiment with NCI-H522 lung, in the experiment with PC-3 prostate, in the experiment with SF-539 CNS, with SNB-75 CNS, in the experiment on SW-620 colon and with TK-10 renal was > 100 µM throughout.
In the case of `CC(=O)CC1CCC(=O)/C=C/C(=O)OC(CC(C)=O)CCC(=O)/C=C/C(=O)O1` (centres undefined), the TGI stood at 33.7 µM in the experiment on A498 renal; 39.4 µM in the experiment on HCC-2998 colon; 32.1 µM in the experiment with IGROV1 ovarian; 35.1 µM in the experiment with LOX IMVI melanoma; 24 µM with MDA-N; 36.3 µM with NCI-H460 lung. Also, the TGI with NCI-H522 lung was found to be 2.91 µM; with PC-3 prostate, 28.6 µM; in the experiment on SF-539 CNS it was 34.9 µM; with SNB-75 CNS, 28.8 µM; in the experiment on SW-620 colon, 3.65 µM; with TK-10 renal, 19 µM.
For the compound `C[N+]12C=CC=C1C(N1CCCC1)c1scc(-c3ccc(Br)cc3)c12` (centres undefined), the TGI is > 100 µM in the experiment on A498 renal; 39.9 µM with HCC-2998 colon; 20.8 µM with IGROV1 ovarian; > 100 µM with LOX IMVI melanoma; 98.2 µM in the experiment with MDA-N; > 84.7 µM in the experiment on NCI-H460 lung. Also, the TGI with NCI-H522 lung is 9.89 µM; in the experiment with PC-3 prostate it was 99.2 µM; in the experiment with SF-539 CNS, 21.9 µM; in the experiment on SNB-75 CNS, > 22.3 µM; with SW-620 colon it was > 100 µM; in the experiment with TK-10 renal, > 100 µM.
For `O=c1c(F)cn(Cc2c(Cl)cccc2Cl)c(=O)n1Cc1c(Cl)cccc1Cl`, the TGI with A498 renal, with HCC-2998 colon, with IGROV1 ovarian, with LOX IMVI melanoma, in the experiment on MDA-N and in the experiment with NCI-H460 lung was > 31.6 µM throughout. The concentration for total growth inhibition (TGI) in the experiment with NCI-H522 lung, with PC-3 prostate, in the experiment with SF-539 CNS, with SNB-75 CNS, in the experiment with SW-620 colon and in the experiment with TK-10 renal was > 31.6 µM throughout.
As for `COc1ccc(C2c3cc4c(cc3OC3(OC)COC(=O)C23)OCO4)c(OC)c1` (centres undefined), the TGI in the experiment on A498 renal was > 92.9 µM; with HCC-2998 colon it was > 100 µM; in the experiment with IGROV1 ovarian, > 100 µM; in the experiment with LOX IMVI melanoma, > 100 µM; in the experiment with MDA-N it was 5.24 µM; with NCI-H460 lung it was > 100 µM. The TGI in the experiment with NCI-H522 lung is > 22.5 µM; in the experiment on PC-3 prostate, > 100 µM; in the experiment with SF-539 CNS, 21.5 µM; with SNB-75 CNS, 45.5 µM; with SW-620 colon, > 100 µM; with TK-10 renal, > 95.6 µM.
`COCOC1/C=C/CCCCC(=O)C(C)C#CC1` (centres undefined): the TGI in the experiment on A498 renal turned out to be 24.6 µM; with HCC-2998 colon, 20.2 µM; in the experiment on IGROV1 ovarian, 18.1 µM; in the experiment on LOX IMVI melanoma, 7.36 µM; in the experiment on MDA-N, 27 µM; with NCI-H460 lung it was 23.9 µM. The TGI in the experiment with NCI-H522 lung was 3.37 µM; in the experiment with PC-3 prostate it was 24 µM; with SF-539 CNS it was 11.7 µM; in the experiment with SNB-75 CNS, 26.1 µM; in the experiment with SW-620 colon, 3.56 µM; with TK-10 renal, 21.6 µM.
On to `C=C1c2nc3ccccc3n2C=C(c2ccc(OC)cc2)N1c1ccc(OC)cc1`, for which the concentration for total growth inhibition (TGI) in the experiment on A498 renal is 64.9 µM; with HCC-2998 colon, > 100 µM; in the experiment on IGROV1 ovarian, 94.3 µM; in the experiment with LOX IMVI melanoma it was > 100 µM; with MDA-N it was > 100 µM; in the experiment on NCI-H460 lung, > 100 µM. Also, the concentration for total growth inhibition (TGI) is > 100 µM with NCI-H522 lung; > 100 µM in the experiment on PC-3 prostate; 64.8 µM with SF-539 CNS; 30.6 µM in the experiment with SNB-75 CNS; > 100 µM with SW-620 colon; 24.3 µM with TK-10 renal.
In the case of `O=C1NC2(CCN(CCc3ccccc3)CC2)Oc2ccccc21`, the total growth inhibition concentration (TGI) in the experiment with A498 renal, in the experiment with HCC-2998 colon, in the experiment with IGROV1 ovarian, in the experiment with LOX IMVI melanoma, with MDA-N and in the experiment with NCI-H460 lung was > 100 µM each time. The total growth inhibition concentration (TGI) with NCI-H522 lung, in the experiment on PC-3 prostate, in the experiment on SF-539 CNS, with SNB-75 CNS, with SW-620 colon and in the experiment on TK-10 renal was > 100 µM each time.
On to `CCCCCCc1cc2cc(-c3cn4ccsc4n3)c(=O)oc2cc1O`, for which the TGI was > 100 µM in the experiment with A498 renal; > 100 µM in the experiment on HCC-2998 colon; > 100 µM with IGROV1 ovarian; > 100 µM in the experiment on LOX IMVI melanoma; > 22.8 µM in the experiment on MDA-N; > 100 µM in the experiment on NCI-H460 lung. The TGI in the experiment on NCI-H522 lung is > 100 µM; in the experiment with PC-3 prostate it was > 100 µM; in the experiment on SF-539 CNS, > 100 µM; in the experiment with SNB-75 CNS, > 92.7 µM; in the experiment on SW-620 colon it was > 100 µM; in the experiment with TK-10 renal, > 100 µM.
